Laboratory results from US9579325B2, “Modulators of TNF-α signaling” (Genzyme Corporation, priority 2000, dated 2017).
pIC50: −log10 of the molar value.

System: L929 cells
Experiment: TNF High Throughput Screen (TNF-α driven apoptosis assay)
Assay type: cell-based, mouse
Conditions: Mus musculus, human TNF-α + actinomycin D, read-out: TNFα IC50
Description: Description of Table V: The results shown in Table V were obtained using the TNF-α assays performed as described in the protocols entitled “Method for TNF High Throughput Screen” and “Method for VCAM High Throughput Screen”, which are detailed below. These assays measure a cellular response to TNF-α stimulation, and the data published in the table are expressed as percentage inhibitions. Percentage inhibition is computed on a scale of 0 to 100% where 0 percent inhibition means the compound has no effect in the assay (the response is indistinguishable from TNF-α treatment alone), and 100% inhibition means that when the compound is present at the stated concentration, the response in the assay is the same as if TNF-α were not added. These two assays measure two different outcomes of TNF-α treatment, cell death and Vascular Cell Adhesion Molecule (VCAM) expression, and capture two of TNF-α's many biological effects. TNF-α induced apoptosis is a mechanism by which TNF-α production during immune/inflammatory responses can lead to direct cellular and tissue damage. TNF-α VCAM expression in endothelial cells is a response that allows leukocytes to leave the blood and enter a site of immune/inflammatory response. Both of these activities could lead to pathology in immune/inflammatory diseases. In the first column of the table, the percentage inhibition of the TNF-α driven apoptosis assay when the compounds are tested at 1 μM concentration is presented. The second column in the table lists the IC50 for the compound, a standard measure using a dilution series in the assay, and fitting a sigmoidal curve to the resulting dose-response curve. The IC50 is the concentration (derived analytically from the sigmoidal function) at which the compound would inhibit 50% of the response in the assay. The third and fourth column list the corresponding analysis for the TNF-α driven VCAM assay. In Table VI, data corresponding to the data in column 1 of Table V is shown, with human cells replacing the mouse cells used in the high throughput screen. […] As a consequence, the compounds will have use in treating more than one TNF-α mediated condition, and may be selected according to the manner in which the condition manifests. This corresponds to the use of these compounds in the treatment of human disease.
TNF High Throughput Screen.
• 1. Plate 4×10^4 L929 cells in 100 μl of complete EMEM in Costar 96 well plates in PM. • 2. The next day, pretreat with compound, inhibitor and control vehicle for 2 hours. • 3. After 2 hours pretreatment, add 10 μl 5 ng/ml human TNF-α and actinomycin D (40 μg/ml final concentration). • 4. Incubate overnight. • 5. In AM, remove supernatant. • 6. Wash on a plate washer (0.9% NaCl). • 7. Add 100 μl Crystal Violet 0.1% in 20% ETOH. • 8. Incubate at RT for 10 minutes. • 9. Wash on plate washer. • 10. Air dry wells at 37° C. • 11. Add 100 μl of methanol to each well. • 12. Shake plates on orbital shaker and read at 595 nm on plate reader. VCAM High Throughput Screen: Protocol: • 1. Plate Primary human umbilical vein endothelial cells at 1.8×10^4 cells/well in a 96-well tissue culture plate. • 2. Return Plates to 37° C. incubator for 48-72 hours before assay. • 3. On assay day, aspirate wells and add 1804, of endothelial growth cell medium (EGM) to each well. • 4. Add Compound to each well. • 5. Shake plates for 3 minutes. • 6. Incubate plate for 1 hour at 37° C. • 7. Add Tumor Necrosis Factor (TNF) at 1.0 ng/ml final concentration. • 8. Shake plates for 3 minutes. • 9. Incubate plate for 2 hours at 37° C. • 10. Remove plate from incubator and wash plate 3 times with phosphate buffered saline (PBS) using a plate washer. • 11. Add anti-VCAM antibody at 0.5 μg/ml final concentration. • 12. Incubate at 4° C. overnight. • 13. Wash 3 times with PBS on plate washer. • 14. Add goat anti-mouse horseradish peroxidase conjugate. • 15. Incubate at room temperature for one hour. • 16. Wash 3 times with PBS on plate washer. • 17. […]

Row | SMILES | pIC50
1 | N#Cc1cccc(C(C(=O)NCCc2ccccc2)N(CCc2c[nH]cn2)C(=O)c2ccccc2C(=O)c2ccccc2)c1 (centres unmarked) [Compound 1] | 5.58
2 | N#Cc1cccc(C(C(=O)NC(c2ccccc2)c2ccccc2)N(CCc2c[nH]cn2)C(=O)c2ccccc2C(=O)c2ccccc2)c1 (centres unmarked) [Compound 2] | 5.25
3 | N#Cc1cccc(C(C(=O)NC(Cc2ccccc2)c2ccccc2)N(CCc2c[nH]cn2)C(=O)c2ccccc2C(=O)c2ccccc2)c1 (centres unmarked) [Compound 3] | 5.89
4 | N#Cc1cccc(C(C(=O)NCCC(c2ccccc2)c2ccccc2)N(CCc2c[nH]cn2)C(=O)c2ccccc2C(=O)c2ccccc2)c1 (centres unmarked) [Compound 4] | 6.03
5 | O=C(c1ccccc1)c1ccccc1C(=O)N(CCc1c[nH]cn1)C(C(=O)NCC(c1ccccc1)c1ccccc1)c1ccccc1 (centres unmarked) [Compound 5, 2-Benzoyl-N-[(2,2-diphenyl-ethylcarbamoyl)-phenyl-methyl]-N-[2-(1H-imidazol-4-yl)-ethyl]-benzamide] | 6.06
6 | Cc1ccccc1C(C(=O)NCC(c1ccccc1)c1ccccc1)N(CCc1c[nH]cn1)C(=O)c1ccccc1C(=O)c1ccccc1 (centres unmarked) [Compound 6] | 5.97
7 | Cc1cccc(C(C(=O)NCC(c2ccccc2)c2ccccc2)N(CCc2c[nH]cn2)C(=O)c2ccccc2C(=O)c2ccccc2)c1 (centres unmarked) [Compound 7] | 5.40
8 | Cc1ccc(C(C(=O)NCC(c2ccccc2)c2ccccc2)N(CCc2c[nH]cn2)C(=O)c2ccccc2C(=O)c2ccccc2)cc1 (centres unmarked) [Compound 8] | 5.79
9 | CN(C)CCN(C(=O)c1ccccc1C(=O)c1ccccc1)C(C(=O)NCC(c1ccccc1)c1ccccc1)c1cccc(C#N)c1 (centres unmarked) [Compound 9] | 6.30
10 | N#Cc1cccc(C(C(=O)NCC(c2ccccc2)c2ccccc2)N(CCc2c[nH]cn2)C(=O)c2ccccc2Cc2ccccc2)c1 (centres unmarked) [Compound 10] | 5.43
11 | N#Cc1cccc(C(C(=O)NCC(c2ccccc2)c2ccccc2)N(CCN2CCOCC2)C(=O)c2ccccc2C(=O)c2ccccc2)c1 (centres unmarked) [Compound 11] | 5.54
12 | CSc1ccc(C(C(=O)NCC(c2ccccc2)c2ccccc2)N(CCc2c[nH]cn2)C(=O)c2ccccc2C(=O)c2ccccc2)cc1 (centres unmarked) [Compound 12] | 5.29
13 | Cn1cnc(CCN(C(=O)c2ccccc2C(=O)c2ccccc2)C(C(=O)NCC(c2ccccc2)c2ccccc2)c2cccc(C#N)c2)c1 (centres unmarked) [Compound 13] | 5.86
14 | Cn1cncc1CCN(C(=O)c1ccccc1C(=O)c1ccccc1)C(C(=O)NCC(c1ccccc1)c1ccccc1)c1cccc(C#N)c1 (centres unmarked) [Compound 14] | 5.75
15 | N#Cc1cccc(C(C(=O)NCC(c2ccccc2)c2ccccc2)N(CCc2c[nH]cn2)C(=O)c2ccccc2C(=O)c2ccccn2)c1 (centres unmarked) [Compound 15] | 6.41
16 | O=C(c1ccccc1)c1ccccc1C(=O)N(CCc1c[nH]cn1)C(C(=O)NCC(c1ccccc1)c1ccccc1)c1cccc(Cl)c1 (centres unmarked) [Compound 16] | 5.88
17 | O=C(c1ccccc1)c1ccccc1C(=O)N(CCc1c[nH]cn1)C(C(=O)NCC(c1ccccc1)c1ccccc1)c1cccc(C(F)(F)F)c1 (centres unmarked) [Compound 17] | 5.82
18 | COc1ccc(CCNC(=O)C(c2cccc(C#N)c2)N(CCc2c[nH]cn2)C(=O)c2ccccc2C(=O)c2ccccc2)cc1 (centres unmarked) [Compound 18] | 5.57
19 | COc1ccc(C(=O)c2ccccc2C(=O)N(CCc2c[nH]cn2)C(C(=O)NCC(c2ccccc2)c2ccccc2)c2cccc(C#N)c2)cc1 (centres unmarked) [Compound 19] | 6.34
20 | N#Cc1cccc(C(C(=O)NCC(c2ccccc2)c2ccccc2)N(CCc2c[nH]cn2)C(=O)c2ccccc2C(=O)c2ccc(Cl)cc2)c1 (centres unmarked) [Compound 20] | 6.52
21 | N#Cc1cccc(C(C(=O)NCC(c2ccccc2)c2ccccc2)N(CCn2ccnc2)C(=O)c2ccccc2C(=O)c2ccccc2)c1 (centres unmarked) [Compound 21] | 6.04

Row | SMILES | pIC50
22 | N#Cc1cccc(C(C(=O)NCC(c2ccccc2)c2ccccc2)N(CCc2c[nH]cn2)C(=O)c2ccccc2-c2ccco2)c1 (centres unmarked) [Compound 22] | 5.41
23 | N#Cc1cccc(C(C(=O)NCC(C2CCCCC2)C2CCCCC2)N(CCc2c[nH]cn2)C(=O)c2ccccc2C(=O)c2ccccc2)c1 (centres unmarked) [Compound 23] | 5.59
24 | N#Cc1cccc(C(C(=O)NCC(c2ccccc2)c2ccccc2)N(CCCc2c[nH]cn2)C(=O)c2ccccc2C(=O)c2ccccc2)c1 (centres unmarked) [Compound 24] | 5.99
25 | N#Cc1cccc(C(C(=O)NCC(c2ccccc2)C2CCCC2)N(CCc2c[nH]cn2)C(=O)c2ccccc2C(=O)c2ccccc2)c1 (centres unmarked) [Compound 25] | 5.80
26 | CN(CC(c1ccccc1)c1ccccc1)C(=O)C(c1ccccc1)N(CCc1c[nH]cn1)C(=O)c1ccccc1C(=O)c1ccccc1 (centres unmarked) [Compound 26, 2-Benzoyl-N-{[(2,2-diphenyl-ethyl)-methyl-carbamoyl]-phenyl-methyl}-N-[2-(1H-imidazol-4-yl)-ethyl]-benzamide] | 5.47
27 | O=C(c1ccccc1)c1ccccc1C(=O)N(CCc1c[nH]cn1)C(Cc1ccccc1C(F)(F)F)C(=O)NCC(c1ccccc1)c1ccccc1 (centres unmarked) [Compound 27] | 5.57
28 | O=C(c1ccccc1)c1ccccc1C(=O)N(CCc1c[nH]cn1)C(Cc1cccc(C(F)(F)F)c1)C(=O)NCC(c1ccccc1)c1ccccc1 (centres unmarked) [Compound 28] | 5.28
29 | N#Cc1cccc(C(C(=O)NCC(c2ccccc2)c2ccccc2)N(CCc2c[nH]cn2)C(=O)c2ccccc2-c2cccs2)c1 (centres unmarked) [Compound 29] | 5.43
30 | O=C(c1ccccc1)c1ccccc1C(=O)N(CCc1c[nH]cn1)C(Cc1ccccc1Cl)C(=O)NCC(c1ccccc1)c1ccccc1 (centres unmarked) [Compound 30] | 5.63
31 | O=C(c1ccccc1)c1ccccc1C(=O)N(CCc1c[nH]cn1)C(Cc1cccc(Cl)c1)C(=O)NCC(c1ccccc1)c1ccccc1 (centres unmarked) [Compound 31] | 5.47
32 | O=C(c1ccccc1)c1ccccc1C(=O)N(CCc1c[nH]cn1)C(Cc1ccc(Cl)cc1)C(=O)NCC(c1ccccc1)c1ccccc1 (centres unmarked) [Compound 32] | 5.63
33 | COc1ccccc1CC(C(=O)NCC(c1ccccc1)c1ccccc1)N(CCc1c[nH]cn1)C(=O)c1ccccc1C(=O)c1ccccc1 (centres unmarked) [Compound 33] | 5.63
34 | COc1cccc(CC(C(=O)NCC(c2ccccc2)c2ccccc2)N(CCc2c[nH]cn2)C(=O)c2ccccc2C(=O)c2ccccc2)c1 (centres unmarked) [Compound 34] | 5.81
35 | COc1ccc(CC(C(=O)NCC(c2ccccc2)c2ccccc2)N(CCc2c[nH]cn2)C(=O)c2ccccc2C(=O)c2ccccc2)cc1 (centres unmarked) [Compound 35] | 5.58
36 | O=C(c1ccccc1)c1ccccc1C(=O)N(CCc1c[nH]cn1)C(Cc1ccccc1F)C(=O)NCC(c1ccccc1)c1ccccc1 (centres unmarked) [Compound 36] | 5.67
37 | O=C(c1ccccc1)c1ccccc1C(=O)N(CCc1c[nH]cn1)C(Cc1cccc(F)c1)C(=O)NCC(c1ccccc1)c1ccccc1 (centres unmarked) [Compound 37] | 5.63
38 | O=C(c1ccccc1)c1ccccc1C(=O)N(CCc1c[nH]cn1)C(Cc1ccc(F)cc1)C(=O)NCC(c1ccccc1)c1ccccc1 (centres unmarked) [Compound 38] | 5.55
39 | N#Cc1cccc(C(C(=O)NCC(c2ccccc2)c2ccccn2)N(CCc2c[nH]cn2)C(=O)c2ccccc2C(=O)c2ccccc2)c1 (centres unmarked) [Compound 39] | 5.88
40 | [N-]=[N+]=Nc1cccc(C(C(=O)NCC(c2ccccc2)c2ccccc2)N(CCc2c[nH]cn2)C(=O)c2ccccc2C(=O)c2ccccc2)c1 (centres unmarked) [Compound 40] | 5.76
41 | CN(C)CCN(C(=O)c1ccccc1C(=O)c1ccccc1)C(Cc1ccccc1)C(=O)NCC(c1ccccc1)c1ccccc1 (centres unmarked) [Compound 41] | 5.19
